Results: patent publication US20180125995A1, “ANTI-STAPHYLOCOCCUS AUREUS ANTIBODY RIFAMYCIN CONJUGATES AND USES THEREOF” (priority 2014, published 2018)
Converted amounts (≈) assume the structure as drawn.

Columns and labels:
[1] = tested on: MRSA sequestered inside mouse peritoneal macrophages; assay: MIC determination for intracellular bacteria sequestered inside murine macrophages; format: cell-based, Staphylococcus aureus; conditions: for killing of MRSA sequestered inside macrophages: clinically achievable concentrations of the antibiotics; for MIC: Staphylococcus aureus, MRSA, 24 h, read-out: Intracellular MRSA MIC
Procedure: Intracellular MIC was determined on bacteria that were sequestered inside mouse peritoneal macrophages (see below for generation of murine peritoneal macrophages). Macrophages were plated in 24 well culture dishes at a density of 4×10^5 cells/mL and infected with MRSA at a ratio of 10-20 bacteria per macrophage. Macrophage cultures were maintained in growth media supplemented with 50 ug/mL of gentamycin (an antibiotic that is active only on extracellular bacteria) to inhibit the growth of extracellular bacteria and test antibiotics were added to the growth media 1 day after infection. The survival of intracellular bacteria was assessed 24 hours after addition of the antibiotics. Macrophages were lysed with Hanks Buffered Saline Solution supplemented with 0.1% Bovine Serum Albumin and 0.1% Triton-X, and serial dilutions of the lysate were made in Phosphate Buffered Saline solution containing 0.05% Tween-20. The number of surviving intracellular bacteria was determined by plating on Tryptic Soy Agar plates with 5% defibrinated sheep blood.
(§1) For extracellular bacteria, MRSA was cultured overnight in Tryptic Soy Broth, and the MIC was determined to be the minimum antibiotic dose that prevented growth. For intracellular bacteria, murine peritoneal macrophages were infected with MRSA and cultured in the presence of gentamycin to kill extracellular bacteria. Test antibiotics were added to the culture medium one day post infection, and the total number of surviving intracellular bacteria was determined 24 hours later. The expected serum concentrations for clinically relevant antibiotics was reported in Antimicrobial Agents, Andre Bryskier. ASM Press, Washington D.C. (2005).

[2] = tested on: MRSA (NRS384 strain of USA300); assay: MIC determination for extracellular bacteria in liquid culture; format: cell-based; conditions: Staphylococcus aureus, read-out: Extracellular MRSA MIC
Procedure: The MIC for extracellular bacteria was determined by preparing serial 2-fold dilutions of the antibiotic in Tryptic Soy Broth. Dilutions of the antibiotic were made in quadruplicate in 96 well culture dishes. MRSA (NRS384 strain of USA300) was taken from an exponentially growing culture and diluted to 1×10^4 CFU/mL. The bacteria was cultured in the presence of antibiotic for 18-24 hours with shaking at 37° C. and bacterial growth was determined by reading the Optical Density (OD) at […]. The MIC was determined to be the dose of antibiotic that inhibited bacterial growth by >90%.
as §1

[3] = tested on: MRSA (USA300 NRS384 strain); assay: Murine intravenous infection model (SCID IVIG model); format: in vivo, Staphylococcus aureus; conditions: for mice having undetectable level of bacteria in hearts: day 4, n=8; for reduction of bacterial load in kidneys: vs naked antibody
Procedure: Murine intravenous infection model. For studies involving competing human IgG (SCID IVIG model), CB17.SCID mice (Charles River Laboratories, Hollister, Calif.) were reconstituted with GammaGard S/D IGIV Immune Globulin (ASD Healthcare, Brooks Ky.) using a dosing regimen optimized to achieve constant serum levels of at least 10 mg/mL of human IgG in serum. IGIV was administered with an initial intravenous dose of 30 mg per mouse followed by a second dose of 15 mg/mouse by intraperitoneal injection after 6 hours, and subsequent daily dosing of 15 mg per mouse by intraperitoneal injection for 3 consecutive days.
Mice (n=8 for each of antibody or AAC) were infected 4 hours after the first dose of IGIV with 1×10^7 CFU of MRSA (USA300 NRS384 strain) diluted in phosphate buffered saline by intravenous injection. Infected mice were treated with 50 mg/kg of rF1 naked antibody, 103 AAC DAR2 or 102 AAC DAR4. Mice were given a single dose of AAC 26h post infection by intravenous injection, sacrificed on day 4 post infection, and kidneys and hearts were harvested in 5 mL of phosphate buffered saline. The tissue samples were homogenized using a GentleMACS Dissociator™ (Miltenyi Biotec, Auburn, Calif.). The total number of bacteria recovered per organ was determined by plating serial dilutions of the tissue homogenate in PBS 0.05% Tween on Tryptic Soy Agar with 5% defibrinated sheep blood.

[4] = tested on: S. aureus (USA300 NRS384 strain) in murine macrophages; assay: In vitro macrophage assay; format: cell-based, Staphylococcus aureus; conditions: for reduction of bacterial loads: highest dose tested (100 ug/mL), intracellular bacteria 2 days later; for killing of intracellular MRSA: macrophage assay in vitro
Procedure: S. aureus (USA300 NRS384 strain) was incubated with various doses (100 ug/mL, 10 ug/mL, 1 ug/mL or 0.1 ug/mL) of an anti-S. aureus unconjugated antibody, 103 AAC loaded with 1.9 average antibiotic molecules per antibody (AAR2) or with 102 AAC loaded with 3.9 average antibiotic molecules per antibody (AAR4) for 1 hour to permit binding of the antibody to the bacteria. The resulting opsonized bacteria were fed to murine macrophages and incubated at 37° C. to permit phagocytosis (in vitro macrophage assay). After 2 hours, the infection mix was removed and replaced with normal growth media supplemented with 50 ug/mL of gentamycin to kill any remaining extracellular bacteria. The total number of surviving intracellular bacteria was determined 2 days later by plating serial dilutions of the macrophage lysates on Tryptic Soy Agar plates.

MRSA = assay: In vitro survival of MRSA in presence of vancomycin (planktonic, on MG63 osteoblasts, inside peritoneal cells); format: cell-based, Staphylococcus aureus
Procedure: Further analyses in vitro addressed more quantitatively the extent to which intracellular survival facilitates antibiotic evasion. To this end, MG63 osteoblasts were infected with either planktonic MRSA or intracellular MRSA, in the presence of vancomycin.
Infection of osteoblasts or HBMEC. MG63 cell line was obtained from ATCC (CRL-1427) and maintained in RPMI 1640 tissue culture media supplemented with 10 mM Hepes and 10% Fetal Calf Serum (RPMI-10). HBMEC cells (Catalog #1000) and ECM media (catalog#1001) were obtained from SciencCell Research Labs (Carlsbad, Calif.). Cells were plated in 24 well tissue culture plates and cultured to obtain a confluent layer. On the day of the experiment, the cells were washed once in RPMI (without supplements). MRSA or infected peritoneal cells were diluted in complete RPMI-10 and vancomycin was added at 5 ug/mL immediately prior to infection. Peritoneal cells were added to the osteoblasts at 1×10^6 peritoneal cells/mL. A sample of the cells was lysed with 0.1% triton-x to determine the actual concentration of live intracellular bacteria at the time of infection. The actual titer for all infections was determined by plating serial dilutions of the bacteria on Tryptic Soy Agar with 5% defibrinated sheep blood.
MRSA (free bacteria) was seeded in media, media+vancomycin, or media+vancomycin and plated on a monolayer of MG63 osteoblasts (FIG. 1E) or Human Brain Microvascular Endothelial Cells (HBMEC, FIG. 1F). Plates were centrifuged to promote contact of the bacteria with the monolayer. At each time point, the culture supernatant was collected to recover extracellular bacteria or adherent cells were lysed to release intracellular bacteria.

S. aureus = assay: Mouse intravenous infection with free vs intracellular S. aureus, vancomycin therapy; format: in vivo, Staphylococcus aureus; conditions: mice, i.v. infection, vancomycin immediately after infection then once per day, 4 days post infection
Procedure: FIGS. 1A-1F: Intracellular stores of MRSA are protected from vancomycin in vivo and in vitro. […] Four cohorts of mice were infected by intravenous injection with roughly equivalent doses of viable free bacteria or intracellular bacteria and selected groups were treated with vancomycin immediately after infection and then once per day (see Example 2). FIG. 1B and FIG. 1C show bacterial loads in kidney and brain, respectively of infected mice 4 days post infection. The dashed line indicates the limit of detection for the assay. […] (ND=none detected). […] MRSA (free bacteria) was seeded in media, media+vancomycin, or media+vancomycin and plated on a monolayer of MG63 osteoblasts (FIG. 1E) or Human Brain Microvascular Endothelial Cells (HBMEC, FIG. 1F). Extracellular bacteria (free bacteria) grew well in media alone, but were killed by vancomycin. In wells containing a monolayer of mammalian cells (Intracellular+vanco) a fraction of the bacteria were protected from vancomycin during the first 8 hours after infection and were able to expand within the intracellular compartment over 24 hours. Error bars show standard deviation for triplicate wells.
These experiments compared the virulence of intracellular bacteria versus an equivalent dose of free-living planktonic bacteria, and determined whether the intracellular bacteria are able to establish infection in the presence of vancomycin in vivo. […]

[5] = molecular target: glycosylated serine-aspartate repeat (SDR) proteins of Staphylococcus aureus, as displayed on whole bacteria, in lysates or in cell wall preparations; assay: flow cytometry on whole USA300 bacteria
[6] = CB17.SCID mice with IGIV, 50 mg/kg single i.v. dose 26h post infection, day 4

In the case of CC(=O)NC[C@H]1CN(c2ccc(N3CCOCC3)c(F)c2)C(=O)O1 [Linezolid], the “killing of MRSA sequestered inside macrophages” value [1] is reported as “failed to kill”.

With CCCCCCCCCC(=O)N[C@@H](Cc1c[nH]c2ccccc12)C(=O)N[C@H](CC(N)=O)C(=O)N[C@@H](CC(=O)O)C(=O)N[C@@H]1C(=O)NCC(=O)N[C@@H](CCCN)C(=O)N[C@@H](CC(=O)O)C(=O)N[C@H](C)C(=O)N[C@@H](CC(=O)O)C(=O)NCC(=O)N[C@H](CO)C(=O)N[C@@H]([C@H](C)CC(=O)O)C(=O)N[C@@H](CC(=O)c2ccccc2N)C(=O)O[C@@H]1C [Daptomycin] the MIC [1] was greater than 100 µg/mL, the “killing of MRSA sequestered inside macrophages” value [1] was “failed to kill” and the MIC [2] was 4 µg/mL (≈ 2.47 µM).

For “thio-rF1-LC-V205C-MC-(CBDK-cit)-PAB-(dimethylpipBOR) [AAC 103]”, the “mice having undetectable level of bacteria in hearts” value ([3]; 50 mg/kg single i.v. dose) was 6 out of 8, the “reduction of bacterial burdens in heart” value [3, 6] was “approximately 70 fold” and the “reduction of bacterial load in kidneys” value [3, 6] was “approximately 30 fold”. The “reduction of bacterial loads” value [4] was 350 fold and the “killing of intracellular MRSA” value [4] was “killed intracellular MRSA”.

With CO[C@H]1/C=C/O[C@@]2(C)Oc3c(C)c(O)c4c(O)c(c(/C=N/N5CCN(C)CC5)c(O)c4c3C2=O)NC(=O)/C(C)=C\C=C\[C@H](C)[C@H](O)[C@@H](C)[C@@H](O)[C@@H](C)[C@H](OC(C)=O)[C@@H]1C [Rifampicin] the “fold higher dose to eliminate intracellular MRSA compared to MIC of planktonic bacteria” value ([1]; intracellular vs planktonic) was 6,000 fold.

With “thio-rF1-HC-121C, LC-V205C-MC-(CBDK-cit)-PAB-(dimethylpipBOR) [AAC 102]” the “eradication of infection in hearts” value ([3]; 50 mg/kg single i.v. dose, day 4) was “completely eradicated infection in hearts”, the “mice having undetectable level of bacteria in hearts” value ([3]; 50 mg/kg single i.v. dose) was 8 out of 8 and the “reduction of bacterial load in kidneys” value [3, 6] was “more than 30,000 fold”. For the same molecule, the “reduction of bacterial loads” value [4] was “more than 4,000 fold” and the “killing of intracellular MRSA” value [4] was “killed intracellular MRSA”.

With CN[C@H](CC(C)C)C(=O)N[C@H]1C(=O)N[C@@H](CC(N)=O)C(=O)N[C@H]2C(=O)N[C@H]3C(=O)N[C@H](C(=O)N[C@H](C(=O)O)c4cc(O)cc(O)c4-c4cc3ccc4O)[C@H](O)c3ccc(c(Cl)c3)Oc3cc2cc(c3O[C@@H]2O[C@H](CO)[C@@H](O)[C@H](O)[C@H]2O[C@H]2C[C@](C)(N)[C@H](O)[C@H](C)O2)Oc2ccc(cc2Cl)[C@H]1O [Vancomycin] the MIC [1] was greater than 100 µg/mL, the “killing of MRSA sequestered inside macrophages” value [1] was “failed to kill” and the “survival of intracellular MRSA in the leukocytes” value (MRSA; MRSA sequestered inside peritoneal cells, vancomycin, identical conditions) was “About 15%”. For the same molecule, the “killing of planktonic bacteria” value (MRSA; planktonic bacteria exposed to vancomycin alone, 5 ug/mL, one day in culture) was “efficiently killed”, the “surviving bacteria associated with MG63 cells (% of input)” value (MRSA; planktonic bacteria plated on MG63 osteoblasts, vancomycin, one day after infection) was “approximately 0.06%” and the MIC [2] was 1 µg/mL (≈ 0.69 µM). For the same molecule, the “establishment of infection in kidney and brain under vancomycin therapy” value (S. aureus) was “intracellular bacteria, but not planktonic bacteria, were able to establish infection”.

B1: monoclonal antibody rF1 (recombinantly produced F1), human IgG1 kappa (antibody, V domains shown)
VH: EVQLVESGGGLVQPGGSLRLSCAASGFTLSRFAMSWVRQAPGRGLEWVASINNGNNPYYARSVQYRFTVSRDVSQNTVSLQMNNLRAEDSATYFCAKDHPSSGWPTFDSWGPGTLVTVSS
VL: DIQLTQSPSALPASVGDRVSITCRASENVGDWLAWYRQKPGKAPNLLIYKTSILESGVPSRFSGSGSGTEFTLTISSLQPDDFATYYCQHYMRFPYTFGQGTKVEIKR
B1 showed a fold of maximum binding (MFI) against anti-ClfA mAb 4675 [5] of 10 fold.
